Assay [1] concerns black bean aphids (Aphis fabae). Put plainly: Method A: field bean plants (Vicia faba) and aphids dipped into aqueous solution of the formulated preparation. The format is in vivo. Particulars: read-out: mortality among the aphids. Here is the method: Germinated field bean seeds (Vicia faba) with seed roots were transferred into brown glass bottles filled with tap water and then populated with about 100 black bean aphids (Aphis fabae). Plants and aphids were then dipped into an aqueous solution of the formulated preparation to be examined for 5 seconds. After they had drained, plants and animals were stored in a climatized chamber (16 hours of light/day, 25° C., 40-60% relative atmospheric humidity). After 3 and 6 days of storage, the effect of the preparation on the aphids was determined. […]

The test system is the same in assay [2]. In words: Method B: root-systemic action, preparation pipetted into the bottle of field bean (Vicia faba) populated with aphids. The format is in vivo. To be noted: read-out: mortality among the aphids, by root-systemic action. Here is the method:
Germinated field bean seeds (Vicia faba) with seed roots were transferred into brown glass bottles filled with tap water and then populated with about 100 black bean aphids (Aphis fabae). Plants and aphids were then dipped into an aqueous solution of the formulated preparation to be examined for 5 seconds. After they had drained, plants and animals were stored in a climatized chamber (16 hours of light/day, 25° C., 40-60% relative atmospheric humidity). After 3 and 6 days of storage, the effect of the preparation on the aphids was determined. […] Method B:
Germinated field bean seeds (Vicia faba) with seed roots were transferred into brown glass bottles filled with tap water. Four milliliters of an aqueous solution of the formulated preparation to be examined were pipetted into the brown glass bottle. The field bean was then heavily populated with about 100 black bean aphids (Aphis fabae). Plants and aphids were then stored in a climatized chamber (16 hours of light/day, 25° C., 40-60% relative atmospheric humidity). After 3 and 6 days of storage, the root-systemic effect of the preparation on the aphids was determined.

In general, mortality refers to the share of the test organisms that died. Turning to `CCC1(C)N/C(=N/C(=O)c2cnccc2C(F)(F)F)NC1=O` (stereo not drawn) [Compound B-91, N-[(2Z)-4-ethyl-4-methyl-5-oxo-2-imidazolidinylidene]-4-(trifluoromethyl)nicotinamide], in assay [1], the mortality at 300 ppm was in the range of 90 to 100%. Also, the mortality at 30 ppm in assay [2] was 90 to 100%.

As to `CC1(C)N/C(=N/C(=O)c2cnccc2C(F)(F)F)N(Cc2ccc(Cl)cc2)C1=O` [Compound B-529, N-[(2Z)-1-(4-chlorobenzyl)-4,4-dimethyl-5-oxo-2-imidazolidinylidene]-4-(trifluoromethyl)nicotinamide], the mortality at 300 ppm in assay [1] was 90 to 100%. For the same compound, in assay [2], the mortality at 30 ppm lay in the range of 90 to 100%.

Regarding `CSC1=N/C(=N\C(=O)c2cnccc2C(F)(F)F)N(C(C)=O)C1(C)C` [Compound E-135, N-[(2Z)-1-acetyl-5,5-dimethyl-4-methylthio-1,5-dihydro-2H-imidazol-2-ylidene]-4-(trifluoromethyl)nicotinamide], the mortality at 300 ppm in assay [1] lay in the range of 90 to 100%. The mortality at 30 ppm in assay [2] is 90 to 100%.
